Values joined by “and” are separate entries in the source; they are usually repeats but may differ in a detail not shown here. Identical values can stand only once. “Also recorded” adds a separate entry of the source. Like-named read-outs stand apart in the source and are kept apart here.
Assay: Plasma kinetics in rat following intravenous and oral administration;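 as to AUC0-∞: parameter is AUC from zero to infinity in ng·h/mL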
Assay type: in vivo, Sprague Dawley rats
Protocol: This study determined the intravenous pharmacokinetics and oral bioavailability of compound 1 of the invention (see FIG. 1A, structure no. 1), compound 2 of the invention (see FIG. 1D, structure no. 19) and compound 3 of the invention (see FIG. 1I, structure no. 53) following administration to Sprague Dawley rats at a dose level of 10 mg/kg.
Six groups of 3 male rats received either a single intravenous or single oral administration of compound 1, 2 or 3 of the invention at a dose level of 10 mg/kg. Blood samples were obtained at various times after dosing. Plasma samples were analysed for unchanged test item using a suitable LC-MS/MS method. Pharmacokinetic parameters were estimated from individual plasma concentrations.
Eighteen male rats each received either a single intravenous or a single oral administration of either compound 1, 2 or 3 at a dose level of 10 mg/kg. The formulation was orally administered to each animal by gastric gavage and intravenously administered to each animal via a tail vein. The dose was administered at a dose volume of 5 mL/kg. The formulations were administered to each animal according to the details in the following table:
Blood samples (ca 0.3 mL) were removed from the femoral vein of each animal into tubes containing lithium heparin as anticoagulant.
Blood samples were collected from 3 rats at the following times after dose administration: • 3, 6, 15, 45 min and 1.5, 2.5, 4, 6, 8, 24 h post dose. Oral Administration
Blood samples were collected from 3 rats at the following times after dose administration: • 5, 15, 45 min and 1.5, 2.5, 4, 6, 8, 24 h post dose. Processing of Blood Samples
Pharmacokinetic parameters of compound 1, 2 and 3 were derived by non-compartmental analysis using WinNonLin Pro version 5.0.1 (Pharsight 2005). The following parameters were derived, where appropriate, from the individual plasma concentration versus time profiles:
• F % The absolute oral bioavailability calculated as [AUC0-t (oral)*Dose(iv)/AUC0-t (iv)*Dose (oral)]*100 based on mean values derived after oral and intravenous administration Consideration was given to the estimation of λz and corresponding t1/2 values. Three or more points are required within the terminal phase for λz and t1/2 to be estimated. The following additional variables were tabulated to aid identification of potentially unreliable estimates of t1/2 and AUC:
Pharmacokinetic parameters were reported as geometric mean except Tmax which was reported as the median. Geometric coefficient of variation was calculated as: […]
Actual sampling times were used for all calculations of pharmacokinetic parameters. Plasma concentrations that were below the limit of quantification were taken as zero for the pharmacokinetic analysis.

[1] = intravenous 10 mg/kg, male rats, individual animals, acetate, 10 mg/kg
[2] = male, Sprague Dawley, rat, plasma, iv, 10 mg/kg, single intravenous 10 mg/kg, male rats, individual animals, read-out: Sample Concentration in plasma
[3] = male, Sprague Dawley, rat, plasma, iv, 10 mg/kg, single intravenous 10 mg/kg, male rats, mean of 3, read-out: Mean Concentration in plasma

bioavailability (Sprague Dawley, rat, plasma, 10 mg/kg oral vs intravenous, male rats, from mean AUC0-t, read-out: Mean absolute oral bioavailability): 34.8%
Between-animal variability in systemic exposure, coefficient of variation (CV) of AUC0-t (intravenous 10 mg/kg, male rats): less than 20%
AUC0-∞ [1]: 3755 ng·h/mL and 3394 ng·h/mL
AUC(0-t) [1]: 3662 ng·h/mL and 3262 ng·h/mL
C0 [1]: 5834 ng/mL and 2729 ng/mL
CL [1]: 45.15 mL/min/kg and 49.85 mL/min/kg
MRT [1]: 5.76 h
Vss [1]: 15.606 L/kg and 19.225 L/kg
t1/2 [1]: 4.87 h and 5.44 h
Systemic clearance (in words) (intravenous 10 mg/kg, rats): moderate
systemic plasma clearance (CL) as share of hepatic blood flow in rats (intravenous 10 mg/kg, hepatic blood flow 3312 mL/h/kg): approximately 82%
AUC(0-inf) (male, Sprague Dawley, rat, plasma, iv, 10 mg/kg, intravenous 10 mg/kg, male rats, Arithmetic Mean): 3780 ng·h/mL
AUC(0-t) (male, Sprague Dawley, rat, plasma, iv, 10 mg/kg, intravenous 10 mg/kg, male rats, Arithmetic Mean, read-out: AUC0-t): 3600 ng·h/mL
C0 (male, Sprague Dawley, rat, plasma, iv, 10 mg/kg, intravenous 10 mg/kg, male rats, Arithmetic Mean, read-out: C0): 4210 ng/mL
clearance (male, Sprague Dawley, rat, plasma, iv, 10 mg/kg, intravenous 10 mg/kg, male rats, Arithmetic Mean, read-out: CL (converted)): 45.3 mL/min/kg
MRT (male, Sprague Dawley, rat, plasma, iv, 10 mg/kg, intravenous 10 mg/kg, male rats, Arithmetic Mean, read-out: MRT): 6.5 h
Vd (male, Sprague Dawley, rat, plasma, iv, 10 mg/kg, intravenous 10 mg/kg, male rats, Arithmetic Mean, read-out: Vss): 17.6 L/kg
half-life (male, Sprague Dawley, rat, plasma, iv, 10 mg/kg, intravenous 10 mg/kg, male rats, Arithmetic Mean, read-out: t1/2 (converted)): 5.77 h
AUC(0-inf) (male, Sprague Dawley, rat, plasma, iv, 10 mg/kg, intravenous 10 mg/kg, male rats, Geometric mean): 3760 ng·h/mL
AUC(0-t) (male, Sprague Dawley, rat, plasma, iv, 10 mg/kg, intravenous 10 mg/kg, male rats, Geometric mean, read-out: AUC0-t): 3590 ng·h/mL
C0 (male, Sprague Dawley, rat, plasma, iv, 10 mg/kg, intravenous 10 mg/kg, male rats, Geometric mean, read-out: C0): 4020 ng/mL
clearance (male, Sprague Dawley, rat, plasma, iv, 10 mg/kg, intravenous 10 mg/kg, male rats, Geometric mean, read-out: CL (systemic plasma clearance) (converted)): 45.1 mL/min/kg
MRT (male, Sprague Dawley, rat, plasma, iv, 10 mg/kg, intravenous 10 mg/kg, male rats, Geometric mean, read-out: MRT): 6.47 h
Vd (male, Sprague Dawley, rat, plasma, iv, 10 mg/kg, intravenous 10 mg/kg, male rats, Geometric mean, read-out: Vss (mean apparent volume of distribution)): 17.5 L/kg
half-life (male, Sprague Dawley, rat, plasma, iv, 10 mg/kg, intravenous 10 mg/kg, male rats, Geometric mean, read-out: t1/2 (mean apparent terminal half-life) (converted)): 5.7 h
AUC(0-inf) (male, Sprague Dawley, rat, plasma, iv, 10 mg/kg, intravenous 10 mg/kg, male rats, Median): 3760 ng·h/mL
AUC(0-t) (male, Sprague Dawley, rat, plasma, iv, 10 mg/kg, intravenous 10 mg/kg, male rats, Median, read-out: AUC0-t): 3660 ng·h/mL
C0 (male, Sprague Dawley, rat, plasma, iv, 10 mg/kg, intravenous 10 mg/kg, male rats, Median, read-out: C0): 4070 ng/mL
clearance (male, Sprague Dawley, rat, plasma, iv, 10 mg/kg, intravenous 10 mg/kg, male rats, Median, read-out: CL (converted)): 45.1 mL/min/kg
MRT (male, Sprague Dawley, rat, plasma, iv, 10 mg/kg, intravenous 10 mg/kg, male rats, Median, read-out: MRT): 6.43 h
Vd (male, Sprague Dawley, rat, plasma, iv, 10 mg/kg, intravenous 10 mg/kg, male rats, Median, read-out: Vss): 17.9 L/kg
half-life (male, Sprague Dawley, rat, plasma, iv, 10 mg/kg, intravenous 10 mg/kg, male rats, Median, read-out: t1/2 (converted)): 5.44 h
AUC(0-inf) (male, Sprague Dawley, rat, plasma, iv, 10 mg/kg, intravenous 10 mg/kg, male rats, individual animals): 4180 ng·h/mL
AUC(0-t) (male, Sprague Dawley, rat, plasma, iv, 10 mg/kg, intravenous 10 mg/kg, male rats, individual animals, read-out: AUC0-t): 3870 ng·h/mL
clearance (male, Sprague Dawley, rat, plasma, iv, 10 mg/kg, intravenous 10 mg/kg, male rats, individual animals, read-out: CL (converted)): 40.9 mL/min/kg
MRT (male, Sprague Dawley, rat, plasma, iv, 10 mg/kg, intravenous 10 mg/kg, male rats, individual animals, read-out: MRT): 7.31 h
Vd (male, Sprague Dawley, rat, plasma, iv, 10 mg/kg, intravenous 10 mg/kg, male rats, individual animals, read-out: Vss): 17.9 L/kg
half-life (male, Sprague Dawley, rat, plasma, iv, 10 mg/kg, intravenous 10 mg/kg, male rats, individual animals, read-out: t1/2 (converted)): 7 h
concentration at 0.05 h (male, Sprague Dawley, rat, plasma, iv, 10 mg/kg, single intravenous 10 mg/kg, male rats, 0.05 h (3 min), mean of 3, read-out: Mean Concentration in plasma): 2250 ng/mL
concentration at 0.1 h [2]: 941 ng/mL
concentration at 0.1 h [3]: 1120 ng/mL
concentration at 0.25 h [2]: 589 ng/mL
concentration at 0.25 h [3]: 705 ng/mL
concentration at 0.75 h [2]: 441 ng/mL
concentration at 0.75 h [3]: 392 ng/mL
concentration at 1.5 h [2]: 347 ng/mL
concentration at 1.5 h [3]: 308 ng/mL
concentration at 2.5 h [2]: 239 ng/mL
concentration at 2.5 h [3]: 233 ng/mL
concentration at 4 h [2]: 317 ng/mL
concentration at 4 h [3]: 254 ng/mL
concentration at 6 h [2]: 140 ng/mL
concentration at 6 h [3]: 160 ng/mL
concentration at 8 h (male, Sprague Dawley, rat, plasma, iv, 10 mg/kg, single intravenous 10 mg/kg, male rats, 8 h, mean, read-out: Mean Concentration in plasma): 97 ng/mL
concentration at 24 h (male, Sprague Dawley, rat, plasma, iv, 10 mg/kg, single intravenous 10 mg/kg, male rats, 24 h, mean, read-out: Mean Concentration in plasma): 20.2 ng/mL
AUC(0-t) (male, Sprague Dawley, rat, plasma, po, 10 mg/kg, oral 10 mg/kg, male rats, Arithmetic Mean, read-out: AUC0-t): 1350 ng·h/mL
SMILES: N=C(N)NN=CC=Cc1cccn1-c1ccc(Cl)cc1 [Compound 1, [1-(4-chlorophenyl)-1H-pyrrol-2-yl-allylideneamino]guanidinium acetate]
volume of distribution compared with total body water (in words) (intravenous 10 mg/kg, rats, total body water 668 mL/kg, acetate, 10 mg/kg): exceeded the total body water; also recorded: markedly greater than that of the total body water

Reference: patent US8058306B2, “Phenyl pyrrole aminoguanidine derivatives” (Action Pharma A/S, priority 2006, dated 2011)
